Assay results as given in article PMC9897432 (Proceedings of the National Academy of Sciences of the …, 2022).

Legend:
[1] = system: panel of 300 recombinant human kinases; format: biochemical; details: 0.5 µM, panel of 300 kinases
osteoclastogenesis = details: via off-target actions on M-CSF signaling; cited from earlier work

**Q.** Which results are given for COc1ccc(N2C(=O)N(c3c(C)cccc3Cl)Cc3cnc(Nc4ccc(C5CCN(C)CC5)cc4OC)nc32)nc1 [YKL-05-099]?
**A.** S(80): portion of kinases tested inhibited >80% [1]: 43/300; osteoclast maturation (in words) (osteoclastogenesis): directly blocks osteoclast maturation
